{"source": "patent US20220040123A1", "about": "“ANTI-HELICOBACTER FOOD COMPOSITION COMPRISING BETA-CARYOPHYLLENE” (priority 2018, published 2022)", "key": {"[1]": {"tested_on": "Helicobacter pylori", "test": "RT-PCR of H. pylori-specific 16S rRNA in stomach tissue of infected animals", "type": "in vivo, Mongolian gerbils", "details": "groups treated with 100 mg/kg and 500 mg/kg", "protocol": "(§1) Mongolian gerbils were infected with a Helicobacter pylori strain (ATCC 49503) and then subjected to two weeks of acclimatization. To this end, the animals were fasted for 12 hours before and after inoculation with the Helicobacter pylori strain. 500 μl (1×10^9 CFU) of a bacterial suspension was prepared by suspending H. pylori in sterile physiological saline to a concentration of 2×10^9 CFU/ml and introduced directly into the stomach by using a feeding needle. For stable infection, the H. pylori strain was dispensed three times at 48 hour-intervals.\n(§2) Beta-caryophyllene was administered directly into the gastrointestinal at doses of 100 mg/kg and 500 mg/kg for the low and high dose groups, respectively, for 12 weeks after two weeks after infection with H. pylori. The same amount of corn oil as the beta-caryophyllene was administered to each of the non-infected group and the infected group.\nTo confirm H. pylori infection, the stomach tissues of the four animal groups prepared in the H. pylori-infected animal preparation process shown in Experimental Example 2 were subjected to RT-PCR in order to examine whether H. pylori-specific 16S rRNA would be detected."}, "[2]": {"tested_on": "Helicobacter pylori", "test": "Immunohistochemical staining of gastric mucosa and submucosal layer with Helicobacter pylori-specific antibody", "type": "in vivo, Mongolian gerbils", "protocol": "as §1, §2\nAt weeks 0, 6 and 12 of the experiment, a paraffin block was prepared from with the stomach tissue of the infected animal model, and then stomach tissue slide sample with a thickness of 2 μm was prepared from the paraffin block using a microtome (Leica). For immunohistochemical staining, the slide was deparaffinized, heated with citrate buffer in a bath for 20 minutes, and then subjected to immunohistochemical staining using an IHC kit (Vectastain ABC kit, Vector). […]"}, "[3]": {"tested_on": "cagA, vacA and secA genes", "test": "RT-PCR of cagA, vacA and secA gene expression", "type": "cell-based, Helicobacter pylori", "details": "31.25, 62.5, 125, 250 and 500 μg/ml", "protocol": "In addition, in order to examine changes in expression of cagA, vacA and secA genes, H. pylori was treated with beta-caryophyllene at concentrations of 31.25, 62.5, 125, 250 and 500 μg/ml, and then RT-PCR was performed."}, "[4]": {"tested_on": "sabA, hopZ, hpaA, alpA, alpB and babA genes", "test": "RT-PCR of genes involved in the adhesion of H. pylori", "type": "cell-based, Helicobacter pylori", "details": "31.25-500 μg/ml", "protocol": "In order to evaluate the effect of beta-caryophyllene against the adhesion function of H. pylori, changes in the expression of the genes sabA, hopZ, hpaA, alpA, alpB and babA involved in the adhesion of H. pylori were analyzed, and the results are shown in FIG. 8. Specifically, H. pylori was treated with beta-caryophyllene at concentrations of 31.25, 62.5, 125, 250 and 500 μg/ml, and the expression of the genes was analyzed by RT-PCR."}, "[5]": {"tested_on": "flhA, flaA, flaB and flgE genes", "test": "RT-PCR of flagella-associated genes of H. pylori", "type": "cell-based, Helicobacter pylori", "details": "31.25-500 μg/ml", "protocol": "In order to evaluate the effect of beta-caryophyllene treatment on the inhibition of flagella of H. pylori, changes in the expression of the flhA, flaA, flaB and flgE genes which constitute the flagella or are associated with the function of the flagella were examined, and the results are shown in FIG. 9. Specifically, H. pylori was treated with beta-caryophyllene at concentrations of 31.25, 62.5, 125, 250 and 500 μg/ml, and expression of the genes was analyzed by RT-PCR."}, "[6]": {"tested_on": "dnaA, dnaN, holB and polA genes", "test": "Expression of DNA synthesis-related genes of H. pylori", "type": "cell-based, Helicobacter pylori", "details": "31.25-500 μg/ml", "protocol": "DNA replication is essential for the proliferation of Helicobacter pylori, and RNA synthesis (transcription process) is a process essential for protein synthesis in organisms. Thus, unless normal RNA synthesis occurs, normal life activity cannot be maintained. Accordingly, in order to evaluate the inhibitory effect of beta-caryophyllene against the proliferation of H. pylori, H. pylori was treated with beta-caryophyllene at concentrations of 31.25, 62.5, 125, 250 and 500 μg/ml, and changes in the expression of the DNA synthesis-related genes dnaA, dnaN, holB and polA were analyzed, and the results are shown in FIG. 10."}, "[7]": {"tested_on": "virB2, virB4, virB5, virB6, virB7, virB8, virB9, virB10 and virD4 genes", "test": "RT-PCR of type IV secretion system (T4SS) genes", "type": "cell-based, Helicobacter pylori", "details": "31.25-500 μg/ml", "protocol": "In order to evaluate the inhibitory effect of beta-caryophyllene against the CagA toxin injection ability of Helicobacter pylori, expression of virB2, virB4, virB5, virB6, virB7, virB8, virB9, virB10 and virD4 genes associated with the type IV secretion system (T4SS) structure required to inject the CagA toxin into a host cell was analyzed, and the results are shown in FIG. 11. Specifically, Helicobacter pylori was treated with beta-caryophyllene at concentrations of 31.25, 62.5, 125, 250 and 500 μg/ml, and expression of the genes was analyzed by RT-PCR."}, "[8]": {"tested_on": "Helicobacter pylori-infected people", "test": "Human test, changes in digestive system symptoms", "type": "in vivo", "details": "8 weeks", "protocol": "In order to verify the anti-Helicobacter pylori effect of beta-caryophyllene, beta-caryophyllene was administered to 16 semi-healthy people (Helicobacter pylori-infected people) complaining of gastrointestinal disorders, at a dose of 126 mg/day once a day for 8 weeks before meals, and changes in digestive system symptoms (nausea, epigastric pain, heartburn, acid regurgitation, and indigestion) were evaluated, and the results are shown in Table 5."}, "[9]": {"details": "126 mg/day, after vs before intake"}}}
{"smiles": "C=C1CC/C=C(\\C)CC[C@@H]2[C@@H]1CC2(C)C", "note": "[beta-caryophyllene]", "values": [{"measurement": "Helicobacter pylori eradication rate", "setting": "[1]; first value, week 6 (or 100 mg/kg; wording ambiguous)", "result": 90.4, "unit": "%"}, {"measurement": "Helicobacter pylori eradication rate", "setting": "[1]; second value, week 12 (or 500 mg/kg; wording ambiguous)", "result": 95.8, "unit": "%"}, {"measurement": "Helicobacter pylori infection in gastric mucosa and submucosal layer (IHC)", "setting": "[2]; week 6, low dose (100 mg/kg) and high dose (500 mg/kg) groups vs infected group", "result": "significantly decreased"}, {"measurement": "Helicobacter pylori detection in gastric mucosa (IHC)", "setting": "[2]; week 12, low dose (100 mg/kg) and high dose (500 mg/kg) groups vs infected group", "result": "hardly detected"}, {"measurement": "transcription of other genes, including UDP-galactose 4-epimerase (control)", "setting": "[3]", "result": "did not affect"}, {"measurement": "transcription of toxin protein gene cagA", "setting": "[3]", "result": "tended to be inhibited"}, {"measurement": "transcription of toxin protein gene vacA", "setting": "[3]", "result": "tended to be inhibited"}, {"measurement": "expression of alpA gene", "setting": "[4]", "result": "decreased"}, {"measurement": "expression of alpB gene", "setting": "[4]", "result": "decreased"}, {"measurement": "expression of babA gene", "setting": "[4]", "result": "decreased"}, {"measurement": "expression of flgE gene", "setting": "[5]", "result": "decreased"}, {"measurement": "expression of flhA gene", "setting": "[5]", "result": "decreased"}, {"measurement": "expression of dnaA gene", "setting": "[6]", "result": "increased"}, {"measurement": "expression of dnaN gene", "setting": "[6]", "result": "significantly decreased"}, {"measurement": "expression of holB gene", "setting": "[6]", "result": "significantly decreased"}, {"measurement": "expression of polA gene", "setting": "[6]", "result": "increased"}, {"measurement": "expression of virB2 gene", "setting": "[7]", "result": "significantly decreased"}, {"measurement": "expression of virB4 gene", "setting": "[7]", "result": "significantly decreased"}, {"measurement": "expression of virB8 gene", "setting": "[7]", "result": "significantly decreased"}, {"measurement": "Nausea, After intake", "setting": "[8]; 126 mg/day once a day, 16 people, before intake 0.19", "result": 0.06}, {"measurement": "Acid regurgitation, After intake", "setting": "[8]; 126 mg/day once a day, 16 people, before intake 0.25", "result": 0.06}, {"measurement": "Indigestion, After intake", "setting": "[8]; 126 mg/day once a day, 16 people, before intake 0.56", "result": 0.13}, {"measurement": "Heartburn, After intake", "setting": "[8]; 126 mg/day once a day, 16 people, before intake 0.88", "result": 0.38}, {"measurement": "Epigastric pain, After intake", "setting": "[8]; 126 mg/day once a day, 16 people, before intake 1.31", "result": 0.44}, {"measurement": "Acid regurgitation, Improvement rate (%)", "setting": "[8]; [9]", "result": 76, "unit": "%"}, {"measurement": "Epigastric pain, Improvement rate (%)", "setting": "[8]; [9]", "result": 66.4, "unit": "%"}, {"measurement": "Heartburn, Improvement rate (%)", "setting": "[8]; [9]", "result": 56.8, "unit": "%"}, {"measurement": "Indigestion, Improvement rate (%)", "setting": "[8]; [9]", "result": 76.8, "unit": "%"}, {"measurement": "Nausea, Improvement rate (%)", "setting": "[8]; [9]", "result": 68.4, "unit": "%"}, {"measurement": "improvement of Helicobacter pylori-induced gastrointestinal disorders", "setting": "[8]; 126 mg/day, all five symptoms of Table 5", "result": "≥ 56", "unit": "%"}]}
